Patent US20100048713A1, “COMPOUNDS ACTING ON THE SEROTONIN TRANSPORTER” (Aarhus Universitet, priority 2006, published 2010)
pEC50, pIC50: −log10 of the molar value. Entries after “also recorded” stand apart in the source; their conditions may differ. Blank lines part the entries; values can stand above or below the compound they belong to.

How the values were obtained:
[1] = biological target: T1, hSERT (Homo sapiens, UniProt P31645); assay: 5-HT uptake assay, 10 min incubation without preincubation; type: cell-based; conditions: 75 nM [3H]-5-HT, no preincubation
T1 construct: expressed in transfected cells; the general 96-well protocol names Cos-1
T1 sequence (P31645 whole entry): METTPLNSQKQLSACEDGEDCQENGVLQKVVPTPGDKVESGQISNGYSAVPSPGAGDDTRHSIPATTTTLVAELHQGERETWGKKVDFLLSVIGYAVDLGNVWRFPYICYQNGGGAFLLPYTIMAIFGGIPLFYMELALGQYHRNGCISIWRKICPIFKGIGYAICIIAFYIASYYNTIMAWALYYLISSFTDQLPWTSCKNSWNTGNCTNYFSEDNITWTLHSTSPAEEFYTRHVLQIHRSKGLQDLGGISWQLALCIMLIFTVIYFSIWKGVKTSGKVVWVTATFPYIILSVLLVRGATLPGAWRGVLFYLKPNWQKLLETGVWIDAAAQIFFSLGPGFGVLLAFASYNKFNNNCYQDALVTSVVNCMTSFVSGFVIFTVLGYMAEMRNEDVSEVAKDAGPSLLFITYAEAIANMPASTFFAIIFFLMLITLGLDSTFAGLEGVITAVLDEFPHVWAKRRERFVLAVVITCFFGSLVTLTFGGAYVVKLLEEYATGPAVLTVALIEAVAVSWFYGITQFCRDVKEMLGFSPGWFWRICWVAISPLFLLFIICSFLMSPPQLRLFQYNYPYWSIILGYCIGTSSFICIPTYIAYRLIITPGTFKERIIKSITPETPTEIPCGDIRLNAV
Protocol: Cells were grown for 48 h to confluency, and prior to uptake assay, plates were washed in PBSCM. All washing steps were carried out in an automatic plate washer. […] The assay was terminated by washing with PBSCM. The amount of accumulated [^3H]-5HT was determined by solubilizing cells in scintillant (MicroScint 20) with direct counting of plates in a Packard TopCounter. Data was analyzed by GraphPad software.
(§1) Dissociation of [^3H]-citalopram from the serotonin transporter has been studied using membrane preparations from SERT-expressing cells. The off-rates of the radioligand were measured in the presence/absence of a fixed concentration of allosteric ligand. […] Additionally, the allosteric impact on the radioligand in the absence of citalopram, was studied by combining 10 μM fluoxetine and 200/2000 μM allosteric ligand in the dissociation buffer. […] The cells were incubated for 10 minutes before the assay was terminated by washing in PBSCM.

[2] = biological target: T1, hSERT; assay: Dissociation assay with [3H]-citalopram and hSERT membrane preparations; type: binding; conditions: for Stabilises dissociation of [3H]-citalopram: own effect (10 uM fluoxetine) (concentration which affects dissociation): 10 uM fluoxetine in dissociation buffer; for Stabilises dissociation of [3H]-citalopram: 15 uM citalopram (concentration which affects dissociation): 15 uM citalopram in dissociation buffer
Protocol: (§2) 17.5 μl Fugene-6 (Roche Molecular Biochemicals) were mixed with 280 μl Dulbecco's modified Eagle's medium, and incubated at room temperature for 5 minutes. 10 μg of plasmid were added and the mixture was further incubated at least 15 minutes. […] Prior to harvesting the dish was rinsed in PBS. Cells were harvested with a cell scraper in buffer 1 (50 mM Tris-base, 150 mM NaCl, 20 mM EDTA, pH 7.4). After centrifugation (3000 g at 4° C. for 10 mins), cells were suspended and homogenized with an IKA Ultra-Turrax from Rose Scientific Ltd (Edmonton, Alberta, Canada) for 20 s in buffer 1. Membranes were pelleted by ultracentrifugation (12 000 g at 4° C. for 15 min) and homogenization was repeated in buffer 1. Finally, after ultracentrifugation (12000 g, 4° C., 15 min) membranes were resuspended in 1 ml buffer 3 (50 mM Tris-base, 120 mM NaCl, 5 mM KCl, pH 7.4) and stored at −80° C.
Dissociation assay with [^3H]-citalopram and membrane preparations SERT-[^3H]-citalopram complex was formed by incubating hSERT membrane preparation and radioligand in buffer 3 during a 60 min incubation at 4° C. Radioligand was present at a concentration 10 times the Kd value. The time kinetic of dissociation was followed by adding 10 μL complex solution to 250 μL buffer 3 in 96-well plates and incubating subsequently for increasing time intervals at RT. Reactions were terminated by filtration through GF/C glass-fibre filters (Unifilter, Perkin Elmer Life Sciences), preincubated with 40 μl 0.5 % polyethyleneimine, using a Pachard Bell cell harvester, and subsequently washed three times with water. Filters were soaked in 40 μl Microscint 20 scintillation liquid (Pachard Bell). Bound radioactivity was determined by direct counting of plates using a Packard Bell microplate scintillation counter. Dissociation curves were obtained by plotting residual binding vs. time of dissociation.
The interaction of the allosteric ligand with the allosteric mechanism used by citalopram was studied by combining allosteric ligand and citalopram in the dissociation buffer. The interaction of the allosteric ligand with the radioligand was studied by combining the allosteric ligand and fluoxetine in the dissociation buffer.
as §1

[3] = test system: dorsal raphe 5-HT neurons; type: in vivo
Protocol: The experiments were carried out in male Sprague-Dawley rats weighing 250-300 g at the day of the recording. Prior to the acute study, a dose-response curve on the suppressive effect on neuronal firing of fluoxetine was constructed. Subsequently, in the acute study, 5 mg/kg 1-NSC was injected i.v. followed by administration of 1 mg/kg fluoxetine. In the chronic administration experiments, groups of rats were treated with fluoxetine (10 mg/kg/day), 1-NSC (2×10 mg/kg/day) or in combination for 7 days delivered subcutaneously (s.c.) with osmotic minipumps. Control rats received a minipump containing vehicle (NaCl 0.9%). The rats were tested with the minipumps in place.
Extracellular recordings were performed with single-barreled glass micropipettes preloaded with fiberglass filaments in order to facilitate filling. The tip was broken back to 2-4 μm and filled with a 2 M NaCl solution saturated with Pontamine Sky Blue to stain the location. The rats were placed in a stereotaxic frame and a burr hole was drilled on the midline, 1 mm anterior to lambda. Presumed DRN 5-HT neurons were encountered over a distance of 1 mm starting immediately below the ventral border of the Sylvius aqueduct. These neurons were identified using the criteria of Aghajanian (1978): a slow (0.5-2.5 Hz) and regular firing rate and long-duration (0.8-1.2 ms) positive action potentials; they were also verified to be located in DRN. WAY 100635 (N-{2-[4(2-methoxyphenyl)-1-piperazinyl]ethyl}-N-(2-pyridinyl)cyclohexanecarboxamide trihydrochloride; 50-100 μg/kg, i.v.) was used to reverse the suppressant effect of fluoxetine or fluoxetine/1-NSC on the firing activity of DRN 5-HT neurons. […] For the chronic studies, in order to determine the possible changes of the spontaneous firing activity of dorsal raphe 5-HT neurons, four to five electrode descents were carried out through this nucleus, in rats with minipumps in place.
The allosteric ligand 1-NSC was tested in vivo in Sprague-Dawley rats for the ability to interfere with fluoxetine-induced suppression of the neuronal firing rate (Assay 6).

[4] = biological target: T1, hSERT; assay: Binding of [3H]-citalopram to membrane preparations; conditions: 35 nM [3H]-citalopram, 60 min RT
Protocol: as §2
A dilution series of the allosteric ligand was prepared in buffer 3 containing 70 nM [^3H]-citalopram. […] The mixture was incubated under moderate agitation at RT for 60 min. Reactions were terminated by filtration through GF/C glass-fibre filters (Unifilter, Perkin Elmer Life Sciences), preincubated with 40 μl 0.5 % polyethyleneimine, using a Pachard Bell cell harvester, and subsequently washed three times with water. Filters were soaked in 40 μl Microscint 20 scintillation liquid (Pachard Bell). Bound radioactivity was determined by direct counting of plates using a Packard Bell microplate scintillation counter. Displacing curves were obtained by plotting residual binding vs. log concentration of the displacing ligand.

[5] = biological target: T1, hSERT; assay: Binding of [125I]-RTI-55 in whole cell assay, hSERT; conditions: displacement of [125I]-RTI-55
Description: RTI-55 was used to test for the compounds of the present invention to act as displacers of cocain.
(§3) Because RTI-55 (and cocaine) acts as inhibitors of SERT and DAT, we also performed the binding assay in cells transfected with human DAT.

[6] = biological target: T1, hSERT; assay: Binding assay on whole cells transfected with hSERT ([3H]-citalopram displacement); conditions: whole cell assay, 35 nM [3H]-citalopram, 60 min room temperature; table title: 45 min preincubation
Protocol: The pcDNA3 plasmid vector containing the hSERT gene was used for transfection (see FIG. 6).
(§4) The 96-well plate was washed with PBSCM to remove DMEM prior to the assay. […] The plate was subsequently incubated for 60 min at room temperature. The assay was terminated by washing once with PBSCM. The amount of accumulated [^3H]-citalopram was determined by solubilizing cells in scintillant (MicroScint 20) with direct counting of plates in a Packard TopCounter. Data was analyzed by GraphPad software.

[7] = biological target: T2, hDAT (Homo sapiens, UniProt Q01959); assay: Binding of [125I]-RTI-55 in whole cell assay, cells transfected with human DAT; conditions: displacement of [125I]-RTI-55
T2 construct: expressed in transfected cells
T2 sequence (Q01959 whole entry): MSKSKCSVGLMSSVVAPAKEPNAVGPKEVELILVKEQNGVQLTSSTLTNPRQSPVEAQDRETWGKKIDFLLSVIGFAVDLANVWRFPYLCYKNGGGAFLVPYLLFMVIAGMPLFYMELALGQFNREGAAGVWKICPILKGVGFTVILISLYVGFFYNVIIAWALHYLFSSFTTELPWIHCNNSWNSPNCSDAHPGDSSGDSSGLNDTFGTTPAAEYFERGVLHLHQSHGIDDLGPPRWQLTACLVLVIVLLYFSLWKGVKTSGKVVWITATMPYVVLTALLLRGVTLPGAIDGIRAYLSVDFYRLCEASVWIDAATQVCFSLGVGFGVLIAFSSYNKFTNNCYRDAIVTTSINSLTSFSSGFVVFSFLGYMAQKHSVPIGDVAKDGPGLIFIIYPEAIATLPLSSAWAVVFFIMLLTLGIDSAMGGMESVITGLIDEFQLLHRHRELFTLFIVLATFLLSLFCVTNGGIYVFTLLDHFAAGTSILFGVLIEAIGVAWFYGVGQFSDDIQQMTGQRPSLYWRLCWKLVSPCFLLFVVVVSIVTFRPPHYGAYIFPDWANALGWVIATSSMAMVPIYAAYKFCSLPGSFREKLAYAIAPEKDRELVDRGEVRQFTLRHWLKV
Description: A binding assay as described in example 2, wherein the cocaine analogue [^125I] RTI-55 was used to test for the compounds of the present invention to act as displacers of cocain.
as §3

[8] = biological target: T1, hSERT; assay: 5-HT uptake assay with preincubation (whole cells); type: cell-based; conditions: whole cell assay with preincubation (title 45 min, text 60 min), 75 nM [3H]-5-HT, 10 min
Protocol: 7 μl Fugene-6 was mixed with 112 μl Dulbecco's modified Eagle's medium, and incubated at room temperature for 5 minutes. 4 μg of plasmid were added and the mixture was further incubated at least 15 minutes. Cos-1 cells were trypsinized and suspended in growth media, and the plasmid/Fugene-6 mixture was added followed by dispersion into a 96-well plate.
as §4, with “assay. 50 μl PBSCM containing increasing concentrations of allosteric ligand were added to each well, and incubated for 60 min at room temperature under moderate agitation.” for “assay.”, “10” for “60”, “[^3H]-5-HT” for “[^3H]-citalopram”
We tested the allosteric ligands for their ability to inhibit/activate 5-HT-uptake in the whole-cell assay after 60 minutes preincubation.

SMILES: O=S(=O)(Cl)c1cccc2ccccc12 [1-NSC, 1-naphthalenesulfonyl chloride]
5-HT uptake (effect) [1]: Increase
Stabilises dissociation of [3H]-citalopram: own effect (10 uM fluoxetine) (concentration which affects dissociation) [2]: 2000 µM
Stabilises dissociation of [3H]-citalopram: 15 uM citalopram (concentration which affects dissociation) [2]: 2000 µM
effect of 1-NSC alone on neuronal firing rate ([3]; acute injection, restored within minutes (FIG. 1)): small decrease in neuronal firing rate
effect on fluoxetine-induced suppression of the neuronal firing rate ([3]; acute study, 5 mg/kg 1-NSC then 1 mg/kg fluoxetine, DRN (FIG. 1)): acutely enhances the fluoxetine-induced suppression of the neuronal firing rate; also recorded: potentiation of the fluoxetine-induced suppression of the neuronal firing rate
recovery of dorsal raphe 5-HT neuronal firing of fluoxetine treated rats (FIG. 2) ([3]; chronic treatment, 7 day period): potentiated
toxic side effects ([3]; doses used in the experiments of FIGS. 1 and 2, rats): no apparent toxic side effects
Binding of [3H]-citalopram (Bmax) [4]: Displace

EC50 [5]: 2310 µM
pEC50 [6]: 2.90
5-HT uptake (effect) [1]: No effect
Stabilises dissociation of [3H]-citalopram: own effect (10 uM fluoxetine) (concentration which affects dissociation) [2]: 2000 µM
Stabilises dissociation of [3H]-citalopram: 15 uM citalopram (concentration which affects dissociation) [2]: 2000 µM
EC50 [7]: 1280 µM
Binding of [3H]-citalopram (Bmax) [4]: No effect
pIC50 [8]: 2.74
SMILES: Cc1ccc(S(=O)(=O)n2ccnc2)cc1 [TS14]

SMILES: COc1ccccc1N1CCN(CCN(C(=O)C2CCCCC2)c2ccccn2)CC1.Cl.Cl.Cl [Way 100,635, N-{2-[4(2-methoxyphenyl)-1-piperazinyl]ethyl}-N-(2-pyridinyl)cyclohexanecarboxamide trihydrochloride, reference compound]
reversal of suppression of the neuronal firing rate ([3]; 50-100 ug/kg i.v. after fluoxetine or fluoxetine/1-NSC, trihydrochloride): reverses the suppressive effect of fluoxetine on the neuronal firing rate; also recorded: completely restored the neuronal firing rate

SMILES: CNCCC(Oc1ccc(C(F)(F)F)cc1)c1ccccc1 (stereo not drawn) [fluoxetine, reference compound]
recovery of the firing rates ([3]; chronic treatment 7 days s.c. minipumps, rats (FIG. 2)): 30%
